Earlier results as cited in publication PMC6971042, “Exploring ion-ion preferences through structure-property correlations: amino acid-derived, bis(guanidinium) disiloxane salts” (Scientific Reports, 2020).

Parameters: method as in PMID 26714187
Details: qualitative

C[Si](C)(CCCNC(=N)N)O[Si](C)(C)CCCNC(=N)N [GUA, 1,3-bis(3-guanidinopropyl)-tetramethyldisiloxane dichloride]
water solubility: fully water-miscible

C[Si](C)(CCCNC(=N)N)O[Si](C)(C)CCCNC(=N)N.O=[N+]([O-])O [1,3-bis(3-guanidinopropyl)-tetramethyldisiloxane nitrate]
water solubility: abnormally low
